Test results: patent US20230203017A1, “Protein Kinase C Beta Inhibitors and Uses Thereof” (priority 2021, published 2023)
“Also recorded” adds a separate entry of the source. Counter-ions that a name gives are not always drawn.

Tests used:
Recombinant PKCβ = Recombinant PKCβ (Homo sapiens, UniProt P05771); assay: PKCb assay: phosphorylation of Histone H3 (Ser10) by recombinant PKCβ, immunoblot, no lipid activator; assay type: biochemical; conditions: basal PKCb, lipid activator not included; P-Ser10-Histone H3 by immunoblotting, 30° C., 6 minutes
Protocol: Recombinant PKCβ (11ng) was mixed with purified Histone H3 (20 ng) and incubated at 30° C. for 6 minutes and phosphorylated Histone H3 (P^ser10-Histone H3) assessed by immunoblotting using specific antibodies (FIG. 11). Lipid activator was not included our assay because we were interested in finding chemicals inhibiting PKCb in its basal state.

[1] = system: C57BL6 mouse model fed HFD or HFHC diet; assay: Efficacy of PKCβ inhibitors on diet-induced obesity and hepatic steatosis in C57BL6 mice; assay type: in vivo; conditions: for liver TG levels: diet-fed mice (FIGS. 12H, 12I); for weight gain, intraperitoneal administration / weight gain, oral administration: mice on high fat diet; for weight gain, intraperitoneal administration: i.p. (FIG. 12C); for weight gain, oral administration: oral gavage (FIG. 12D)
Protocol: FIG. 12E compares food intake in mice fed HFD for and the indicated PKCb inhibitor was administered by i.p. FIG. 12F compares food intake in mice fed HFD and the indicated PKCb inhibitor was administered orally by gavage.
To test and compare therapeutic efficacy of these inhibitors, the following experiment was set up in a C57BL6 mouse model (20 animals per study). C57BL6 mice (7 week old male mice) were fed either HFD or HFHC diet and were either untreated or treated on the same day with an indicated PKCb inhibitor. The PKCb inhibitor was administered to these mice either by i.p. or oral gavage.
The inhibitors were administered by i.p. (FIG. 12C) or gavage (FIG. 12D).

[2] = system: PKCβ activation of SREBP-1c; assay: SREBP-1c transactivation, Gal4-luciferase reporter with constitutively active PKCβ in HepG2 cells; assay type: cell-based, human; conditions: LY333,531 5 μM, PD98059 20 μM, GSK690693 1 μM
Protocol: (Gal4)5-luciferase reporter plasmid (0.6 μg) was co-transfected with a plasmid encoding either Gal4-DNA binding region (Gal4-DBD) or activation domain of SREBP-1 c linked to Gal4-DNA binding domain (Gal4-DBD-SREBP-1AD) (0.3 μg) (23) and pCMV-8-galactosidase (0.1 μg), along with constitutively active PKCβ cDNA (0.1 μg), in human hepatoma HepG2 cells in the absence or presence of LY333,531 (5 μM), PD98059 (20 μM) or GSK690693 (1 μM). Fold induction represens luciferase activity on PKCβ transfection relative to basal expression level in the absence of PKCβ expression vector (taken as 1). Luciferase activity was normalized to β-galactosidase activity.
To determine whether PKCβ deficiency affected the activation of hepatic SREBP-1c, a plasmid was used in which activation domain of SREBP-1c is fused to the Gal4-DBD and evaluated the activation of a Gal4-responsive reporter plasmid by overexpressed PKCβ in the absence or presence of indicated inhibitor.

Sequence of Recombinant PKCβ (P05771 whole entry, species assumed): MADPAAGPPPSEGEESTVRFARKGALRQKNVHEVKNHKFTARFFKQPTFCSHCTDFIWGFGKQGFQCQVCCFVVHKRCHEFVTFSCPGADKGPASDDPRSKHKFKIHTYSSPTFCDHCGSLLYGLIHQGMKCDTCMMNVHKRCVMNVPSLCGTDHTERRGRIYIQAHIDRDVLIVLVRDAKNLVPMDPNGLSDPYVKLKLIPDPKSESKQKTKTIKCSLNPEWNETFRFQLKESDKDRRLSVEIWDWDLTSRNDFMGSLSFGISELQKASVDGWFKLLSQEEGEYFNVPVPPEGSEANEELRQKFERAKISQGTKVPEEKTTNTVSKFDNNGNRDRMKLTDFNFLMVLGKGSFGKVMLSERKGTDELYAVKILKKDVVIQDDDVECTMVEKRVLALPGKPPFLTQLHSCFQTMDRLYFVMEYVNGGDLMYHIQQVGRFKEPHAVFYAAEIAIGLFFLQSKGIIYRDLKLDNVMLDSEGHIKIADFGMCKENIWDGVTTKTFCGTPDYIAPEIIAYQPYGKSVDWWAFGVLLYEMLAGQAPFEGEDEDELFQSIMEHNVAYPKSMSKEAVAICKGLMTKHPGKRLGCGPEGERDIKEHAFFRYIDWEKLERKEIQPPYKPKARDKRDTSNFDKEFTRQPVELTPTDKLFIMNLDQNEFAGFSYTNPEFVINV

| SMILES | IC50 (Recombinant PKCβ) | liver TG levels [1] | weight gain, intraperitoneal administration [1] | weight gain, oral administration [1] | diet-induced obesity ([1]; mice (FIG. 12G)) | activation of SREBP-1c plasmid by overexpressed PKCβ in presence of inhibitor [2] |
| --- | --- | --- | --- | --- | --- | --- |
| N#CCCCCCn1cc(C2=C(c3cn(CCCCCC#N)c4ccccc34)C(=O)NC2=O)c2ccccc21 [INST3399] | 50 nM | reduces liver TG levels | reduction in weight gain | caused an increase in weight gain; also recorded: greater weight gain relative to LY333531 | – | – |
| Cn1cc(-c2c(-c3c[nH]c4ccccc34)[nH][nH]c2=O)c2ccccc21 [INST5660] | 10 nM | reducing diet-induced liver triglyceride level | – | – | reducing diet-induced obesity | – |
| CN(C)C[C@@H]1CCn2cc(c3ccccc32)C2=C(C(=O)NC2=O)c2cn(c3ccccc23)CCO1 [LY333531, Ruboxistaurin hydrochloride, reference compound] | – | – | reduction in weight gain | caused an increase in weight gain | – | this activation was blocked |
